Data on 17 molecules can be found in EP4806898A1, “HETEROARYL DERIVATIVE COMPOUND AND USE THEREOF” (Voronoi Inc., priority 2023, dated 2025).

Read-outs that look alike come from different tables or passages of the source.

The target of experiment [1] is T1, recombinant USP1 protein (Homo sapiens, UniProt O94782, DEL125-138/DEL229-408/DEL608-737).
T1 sequence (O94782 with tags, fused parts or gaps DEL125-138/DEL229-408/DEL608-737): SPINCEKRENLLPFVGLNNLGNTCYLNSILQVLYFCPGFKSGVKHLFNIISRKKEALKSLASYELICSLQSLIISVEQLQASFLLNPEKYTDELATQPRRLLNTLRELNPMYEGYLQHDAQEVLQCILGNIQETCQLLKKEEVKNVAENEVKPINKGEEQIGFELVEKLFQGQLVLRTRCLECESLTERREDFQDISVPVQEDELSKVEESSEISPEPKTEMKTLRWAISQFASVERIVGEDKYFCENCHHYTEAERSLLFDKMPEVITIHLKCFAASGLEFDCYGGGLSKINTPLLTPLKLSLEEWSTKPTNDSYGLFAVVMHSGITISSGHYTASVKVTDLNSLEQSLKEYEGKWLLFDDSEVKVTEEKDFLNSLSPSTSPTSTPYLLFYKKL
In words: Binding affinity to recombinant USP1 protein by differential scanning fluorimetry. Particulars: compound 100 µM; 0.03 mg/mL USP1 (Δ1-66, Δ125-138, Δ229-408, Δ608-737); Tm with compound minus Tm with DMSO; read-out: ΔTm (°C). On the procedure: <Experimental Example 1> Confirmation and evaluation of the binding affinity to recombinant USP1 protein
To evaluate the binding affinity of the compounds of the present invention to the USP1 protein, the following experiment was performed using differential scanning fluorimetry.
Recombinant 0.03 mg/mL USP1 (Δ1-66, Δ125-138, Δ229-408, Δ608-737) protein, dye reagent, and buffer solution (50 mM Tris-HCl pH 8.0, 150 mM NaCl, 2% glycerol, 1 mM DTT) were mixed and 19 µL of the mixture was dispensed into a well plate (MicroAmp Fast 96-Well Reaction plate, 0.1 mL). Each compound was injected at a final concentration of 100 µM in an amount of 1 µL, and the plate containing a total of 20 µL was sealed with MicroAmp Optical Adhesive Film. The melting temperature (Tm) of the protein in each well was measured using a real-time PCR (RT-PCR) device. The difference between the Tm of the sample containing the compound and the Tm containing DMSO is referred to as delta Tm (ΔTm), where a larger ΔTm value indicates stronger binding affinity. The degree of temperature at which the protein is modified in the presence of the compound compared to DMSO was calculated according to Equation 1 below: [formula]
For orientation: Differential scanning fluorimetry follows unfolding on heating by fluorescence.

Experiment [2] deals with UWB1.289 cells. The experiment in a line: Cell proliferation inhibitory activity in BRCA1/2-mutant or HRD-positive cells (Cell Titer-Glo). Type of experiment: cell-based. Particulars: UWB1.289 cells, 144 hours after compound treatment, Cell Titer-Glo, 1.5 nM to 10 µM, read-out: GI50 UWB1.289 BRCA1 mut. On the procedure:
<Experimental Example 2> Evaluation of Cell Proliferation Inhibitory Activity in BRCA1/2-Mutant or HRD-Positive Cells
To evaluate the inhibitory activity of the compound according to the present invention on the proliferation of BRCA1/2 mutants or homologous recombination deficient (HRD) positive cell lines, the following experiments were performed. UWB1.289 cells were cultured in medium (50% MEBM + 50% RPMI1640), and 1,000 cells were seeded in a well plate (black clear bottom 96-well plate, Corning) 16 to 24 hours prior to compound treatment. The compounds were diluted in dimethyl sulfoxide (3-fold serial dilution starting at 10 µM, for a total of 10 concentrations) and injected at 1 µl per well, resulting a final concentration range of […] to 10 µM. Measurements of live cells were performed by a reaction in a 37 °C and CO2 incubator for 144 hours after compound treatment. The cells were incubated for 10 minutes in an incubator using Cell Titer-Glo luminescent cell-viability reagent (Promega), and luminescence intensity thereof was measured using a reader (SynergyNeo2, Biotek). GI50 values were calculated using the GraphPad Prism version 8.4.3 (GraphPad software Inc., San Diego) program.
In general terms: In ATP-based viability assays light output follows the ATP content of the culture.

Broadly, the ΔTm is the shift of the melting midpoint relative to a reference. The term GI50 denotes the concentration at which growth is held to half of that of the control. In the case of `COc1ncnc(C2CC2)c1-c1ncc2cc(C(=O)N[C@@H]3CCN(C4COC4)C[C@@H]3F)n(Cc3ccc(-c4nc(C(F)(F)F)cn4C)cc3)c2n1` [Example 216, 2-(4-cyclopropyl-6-methoxypyrimidin-5-yl)-N-((3S,4R)-3-fluoro-1-(oxetan-3-yl)piperidin-4-yl)-7-(4-(1-methyl-4-(trifluoromethyl)-1H-imidazol-2-yl)benzyl) -7H-pyrrolo[2,3-d]pyrimidine-6-carboxamide], the ΔTm at 100 µM in experiment [1] was > 5 °C. Besides, the GI50 in experiment [2] (UWB1289) is 100 to 500 nM.

Turning to `CN[C@H]1CCN(C(=O)c2cc3cnc(-c4c(OC)ncnc4C4CC4)nc3n2Cc2ccc(-c3nc(C(F)(F)F)cn3C(C)C)cc2)C1` [Example 97, (S)-(2-(4-cyclopropyl-6-methoxypyrimidin-5-yl)-7-(4-(1-isopropyl-4-(trifluoromethyl)-1H-imidazol-2-yl)benzyl)-7H-pyrrolo[2,3-d]pyrimidin-6-yl) (3-(methylamino)pyrrolidin-1-yl)methanone], the ΔTm at 100 µM in experiment [1] was > 5 °C. The GI50 in experiment [2] (UWB1289) lay within 100 to 500 nM.

`COc1ncnc(C2CC2)c1-c1ncc2cc(C(=O)NC3CCN(C4CC4)CC3)n(Cc3ccc(-c4nc(C(F)(F)F)cn4C(C)C)cc3)c2n1` [Example 121, 2-(4-cyclopropyl-6-methoxypyrimidin-5-yl)-N-(1-cyclopropylpiperidin-4-yl)-7-(4-(1-isopropyl-4-(trifluoromethyl)-1H-imidazol-2-yl)benzyl)-7H-pyrrolo[2,3-d]pyrimidine-6-carboxamide]: the ΔTm at 100 µM in experiment [1] is > 5 °C. Further, the GI50 in experiment [2] (UWB1289) is < 100 nM. In the same order, the values of `COc1ncnc(C2CC2)c1-c1ncc2cc(C(=O)NCc3ccccc3)n(Cc3ccc(-c4nc(C(F)(F)F)cn4C(C)C)cc3)c2n1` [Example 49, N-benzyl-2-(4-cyclopropyl-6-methoxypyrimidin-5-yl)-7-(4-(1-isopropyl-4-(trifluoromethyl)-1H-imidazol-2-yl)benzyl)-7H-pyrrolo[2,3-d]pyrimidine-6-carboxamide] are > 5 °C and 100 to 500 nM.

Take `COc1ncnc(C2CC2)c1-c1ncc2cc(C(=O)NC3CC3(F)F)n(Cc3ccc(-c4nc(C(F)(F)F)cn4C(C)C)cc3)c2n1` (centres unmarked) [Example 10, 2-(4-cyclopropyl-6-methoxypyrimidin-5-yl)-N-(2,2-difluorocyclopropyl)-7-(4-(1-isopropyl-4-(trifluoromethyl)-1H-imidazol-2-yl)benzyl)-7H-pyrrolo[2,3-d]pyrimidine-6-carboxamide]: the ΔTm at 100 µM in experiment [1] is > 5 °C. The GI50 in experiment [2] (UWB1289) was < 100 nM.

`COc1ncnc(C2CC2)c1-c1ncc2cc(C(=O)NC3CCC(N(C)C)CC3)n(Cc3ccc(-c4nc(C(F)(F)F)cn4C)cc3)c2n1` (centres unmarked) [Example 172]: the ΔTm at 100 µM in experiment [1] is > 5 °C. Also, the GI50 in experiment [2] (UWB1289) is < 100 nM.

Turning to `CC[C@@H](C)NC(=O)c1cc2cnc(-c3c(OC)ncnc3C3CC3)nc2n1Cc1ccc(-c2nc(C(F)(F)F)cn2C(C)C)cc1` [Example 92, (R)-N-(sec-butyl)-2-(4-cyclopropyl-6-methoxypyrimidin-5-yl)-7-(4-(1-isopropyl-4-(trifluoromethyl)-1H-imidazol-2-yl)benzyl)-7H-pyrrolo[2,3-d]pyrimidine-6-carboxamide], the GI50 in experiment [2] (UWB1289) is < 100 nM.

Take `COc1ncnc(C2CC2)c1-c1ncc2cc(C(=O)NC[C@H]3CCCN3C)n(Cc3ccc(-c4nc(C(F)(F)F)cn4C(C)C)cc3)c2n1` [Example 136, (R) -2-(4-cyclopropyl-6-methoxypyrimidin-5-yl)-7-(4-(1-isopropyl-4-(trifluoromethyl)-1H-imidazol-2-yl)benzyl)-N-((1-methylpyrrolidin-2-yl)methyl)-7H-pyrrolo[2,3-d]pyrimidine-6-carboxamide]: the GI50 in experiment [2] (UWB1289) is < 100 nM. On the same count and under the same terms, the figure for `COc1ncnc(C2CC2)c1-c1ncc2cc(C(N)=O)n(Cc3ccc(-c4nc(C(F)(F)F)cn4C)cc3)c2n1` [Example 148, 2-(4-cyclopropyl-6-methoxypyrimidin-5-yl)-7-(4-(1-methyl-4-(trifluoromethyl)-1H-imidazol-2-yl)benzyl)-7H-pyrrolo[2,3-d]pyrimidine-6-carboxamide] is < 100 nM. “2-(4-cyclopropyl-6-methoxypyrimid in-5-yl)-N-((3,3-difluorocyclob utyl)methyl) - 7-(4-(1-isopropyl-4-(trifluorometh yl)-1H-imidazol-2-yl)benzyl)-7H-pyrrolo[2,3-d]pyrimidine-6-carboxamide [Example 84]”: in experiment [2], the GI50 lay within 100 to 500 nM. `COc1ncnc(C2CC2)c1-c1ncc2cc(C(=O)NC3CCNCC3)n(Cc3ccc(-c4nc(C(F)(F)F)cn4C(C)C)cc3)c2n1` [Example 159, 2-(4-cyclopropyl-6-methoxypyrimidin-5-yl)-7-(4-(1-isopropyl-4-(trifluoromethyl)-1H-imidazol-2-yl)benzyl)-N-(piperidin-4-yl)-7H-pyrrolo[2,3-d]pyrimidine-6-carboxamide]: the GI50 in experiment [2] (UWB1289) is 100 to 500 nM. Consider `COCCN1CC[C@@H](NC(=O)c2cc3cnc(-c4c(OC)ncnc4C4CC4)nc3n2Cc2ccc(-c3nc(C(F)(F)F)cn3C)cc2)[C@@H](F)C1` [Example 160, 2-(4-cyclopropyl-6-methoxypyrimidin-5-yl)-N-((3S,4R)-3-fluoro-1-(2-methoxyethyl)piperidin-4-yl)-7-(4-(1-methyl-4-(trifluoromethyl)-1H-imidazol-2-yl)benzyl)-7H-pyrrolo[2,3-d]pyrimidine-6-carboxamide], for which the ΔTm at 100 µM in experiment [1] was > 5 °C.

On to `CNC(=O)c1cc2cnc(-c3c(OC)ncnc3C3CC3)nc2n1CC12CCC(c3nc(C(F)(F)F)cn3C(C)C)(CC1)CO2` [Example 226, 2-(4-cyclopropyl-6-methoxypyrimidin-5-yl)-7-(((1s,4s)-4-(1-isopropyl-4-(trifluoromethyl)-1H-imidazol-2-yl)-2-oxabicyclo[2.2 .2]octan-1-yl)methyl)-N-methyl-7H-pyrrolo[2,3-d]pyrimidine-6-carboxamide], for which the ΔTm at 100 µM in experiment [1] was < 5 °C. Same read-out and setting: the figure for `COc1ncnc(C2CC2)c1-c1ncc2cc(C(=O)N(C)C3CNC3)n(Cc3ccc(-c4nc(C(F)(F)F)cn4C(C)C)cc3)c2n1` [Example 103, N-(azetidin-3-yl)-2-(4-cyclopropyl-6-methoxypyrimidin-5-yl)-7-(4-(1-isopropyl-4-(trifluoromethyl) -1H-imidazol-2-yl)benzyl)-N-methyl-7H-pyrrolo[2,3-d]pyrimidine-6-carboxamide] is > 5 °C; for `COc1ncnc(C2CC2)c1-c1ncc2cc(C(=O)N3CCCC3)n(Cc3ccc(-c4nc(C(F)(F)F)cn4C)cc3)c2n1` [Example 192, (2-(4-cyclopropyl-6-methoxypyrimid in-5-yl)-7-(4-(1-methyl-4-(trifluoromethyl)-1H-imidazol-2-yl)benzyl)-7H-pyrrolo[2,3-d]pyrimidin-6-yl) (pyrrolidin-1-yl)methanone] it is > 5 °C; for `COc1ncnc(C2CC2)c1-c1ncc2cc(C(=O)NC3CCS(=O)(=O)CC3)n(Cc3ccc(-c4nc(C(F)(F)F)cn4C(C)C)cc3)c2n1` [Example 93, 2-(4-cyclopropyl-6-methoxypyrimidin-5-yl)-N-(1,1-dioxidotetrahydro-2H-thiopyran-4-yl)-7-(4-(1-isopropyl-4-(trifluoromethyl)-1H-imidazol-2-yl)benzyl)-7H-pyrrolo[2,3-d]pyrimidine-6-carboxamide] it is > 5 °C. As for `CCn1cnc(C2CC2)c(-c2ncc3cc(C(=O)NC)n(Cc4ccc(-c5nc(C(F)(F)F)cn5C(C)C)cc4)c3n2)c1=O` [Example 62, 2-(4-cyclopropyl-1-ethyl-6-oxo-1,6-dihydropyrimidin-5-yl)-7-(4-(1-isopropyl-4-(trifluoromethyl)-1H-imidazol-2-yl)benzyl)-N-methyl-7H-pyrrolo[2,3-d]pyrimidine-6-carboxamide], the ΔTm at 100 µM in experiment [1] was < 5 °C.
